Measurements as given in PubChem BioAssay (NCI).
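Tested at 5 concentrations; 48 h exposure; 96-well plates; endpoints linearly interpolated, else capped at highest concentration. TGI is the concentration that stops growth completely.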

What was measured:
Assay in all cases: growth of human tumour cells (NCI), 48 h
[1] = tested on: TK-10 renal
[2] = tested on: NCI-H23 lung
[3] = tested on: SF-268 CNS
[4] = tested on: RPMI-8226 leukemia
[5] = tested on: SR leukemia
[6] = tested on: SK-OV-3 ovarian
[7] = tested on: HT29 colon
[8] = tested on: NCI-H522 lung
[9] = tested on: MALME-3M melanoma
[10] = tested on: CCRF-CEM leukemia

Measured: TGI

O=c1[nH]c(=S)[nH]c2c1sc(=S)n2-c1ccccc1
> 100 µM: [1] | [2] | [3] | [4] | [5] | [6] | [7] | [8] | [9] | [10]
